Assay results taken from patent publication US9428452B2, “Compounds” (Glaxo Group Limited, priority 2012, dated 2016).
Where a name gives a salt, the structure may show the parent alone.

biological target: T1, Human RORγ Ligand Binding Domain (RORγ-LBD) (Homo sapiens, UniProt P51449); assay: Dual Fluorescence Energy Transfer (FRET) assay: co-activator SRC1(2) peptide interaction with RORγ-LBD; type: biochemical; conditions: RORγ-LBD / SRC1(2) peptide, read-out: mean pIC50 (converted)
T1 construct: His6 with thrombin site) (N); made in house; host or cells: E. coli BL21(DE3), modified pET21a vector
T1 sequence (P51449 263-518): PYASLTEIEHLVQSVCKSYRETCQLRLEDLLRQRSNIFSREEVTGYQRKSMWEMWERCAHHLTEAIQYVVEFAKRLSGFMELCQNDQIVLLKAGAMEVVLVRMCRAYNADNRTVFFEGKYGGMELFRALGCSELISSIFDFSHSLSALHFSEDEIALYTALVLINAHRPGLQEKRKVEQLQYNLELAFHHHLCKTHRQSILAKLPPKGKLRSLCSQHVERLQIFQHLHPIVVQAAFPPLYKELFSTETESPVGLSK
Source text: Dual Fluorescence Energy Transfer (FRET) Assay
This assay is based on the knowledge that nuclear receptors interact with cofactors (transcription factors) in a ligand dependent manner. RORγ is a typical nuclear receptor in that it has an AF2 domain in the ligand binding domain (LBD) which interacts with co-activators.
This assay measures ligand-mediated interaction of the co-activator peptide with the purified bacterial-expressed RORγ ligand binding domain (RORγ-LBD) to indirectly assess ligand binding. RORγ has a basal level of interaction with the co-activator SRC1(2) in the absence of ligand, thus, it is possible to find ligands that inhibit or enhance the RORγ/SRC1(2) interaction.
Human RORγ Ligand Binding Domain (RORγ-LBD) was expressed in E. coli strain BL21(DE3) as an amino-terminal polyhistidine tagged fusion protein. DNA encoding this recombinant protein was sub-cloned into a modified pET21a expression vector (Novagen).
Approximately 50 g E. coli cell pellet was resuspended in 300 mL of lysis buffer (30 mM imidazole pH 7.0 and 150 mM NaCl). Cells were lysed by sonication and cell debris was removed by centrifugation for 30 minutes at 20,000 g at 4° C. […] The clarified lysate was loaded onto a column (XK-26) packed with ProBond Nickel Chelating resin (InVitrogen), pre-equilibrated with 30 mM imidazole pH 7.0 and 150 mM NaCl. After washing to baseline absorbance with the equilibration buffer, the column was developed with a gradient from 30 to 500 mM imidazole pH 7.0. Column fractions containing the RORγ-LBD protein were pooled and concentrated to a volume of 5 mLs. The concentrated protein was loaded onto a Superdex 200 column pre-equilibrated with 20 mM Tris-Cl pH 7.2 and 200 mM NaCl. The fractions containing the desired RORγ-LBD protein were pooled together.
Purified RORγ-LBD was buffer exchanged by exhaustive dialysis [3 changes of at least 20 volumes (>8000×)] against PBS [100 mM NaPhosphate, pH 8 and 150 mM NaCl]. […] The modified RORγ-LBD was dialyzed against 2 buffer changes—TBS pH 8.0 containing 5 mM DTT, 2 mM EDTA and 2% sucrose—each at least 20 times of the volume. The modified protein was distributed into aliquots, frozen on dry ice and stored at −80° C. The biotinylated RORγ-LBD was subjected to mass spectrometric analysis to reveal the extent of modification by the biotinylation reagent.
Biotinylated SRC1(2) solution was prepared by adding an appropriate amount of biotinylated SRC1(2) from the 100 uM stock solution to a buffer containing 10 mM of freshly added DTT from solid to give a final concentration of 40 nM. An appropriate amount of Europium labeled Streptavidin was then added to the biotinylated SRC1(2) solution in a tube to give a final concentration of 10 nM. The tube was inverted gently and incubated for 15 minutes at room temperature. Twenty-fold excess biotin from the 10 mM stock solution was added and the tube was inverted gently and incubated for 10 minutes at room temperature.
Biotinylated RORγ-LBD solution was prepared by adding an appropriate amount of biotinylated RORγ-LBD from the stock solution to a buffer containing 10 mM of freshly added DTT from solid to give a final concentration of 40 nM. An appropriate amount of APC labeled Streptavidin was then added to the biotinylated RORγ-LBD solution in a tube to give a final concentration of 20 nM. The tube was inverted gently and incubated for 15 minutes at room temperature. Twenty-fold excess biotin from the 10 mM stock solution was then added and the tube was inverted gently and incubated for 10 minutes at room temperature.
The reaction mixtures were incubated for 5 minutes. […] The plates were incubated for 1 hour and then read on ViewLux in Lance mode for EU/APC.

`Cc1ccc(N(CC(C)C)S(=O)(=O)c2ccc(OCC3CCOCC3)c(C)c2)c(C)c1` [Example E24] was tested, and the IC50 was ≤ 15.8 nM.

system: IL-17F mRNA expression; assay: Ex-vivo human skin model, IL-17F mRNA expression; type: cell-based; conditions: four different donors, compound 10 μM
Description: (§1) Fresh ex vivo human skin from healthy bariatric patients, that underwent abdominoplasty skin removal, was de-fatted and dermatomed at 750 μm. Dermatomed skin was incubated twice for 5-10 minutes at room temperature in PBS containing a antibiotic/antimycotic solution: Fungizone (Invitrogen #15290018), PSG (Fisher #BW17718R) and Gentamicin (Invitrogen #15750060). Skin was treated aseptically from this point on. Individual skin samples were obtained by 10 mm punch biopsy and placed in a 0.4 μm PCF membrane transwell (Millicell #PIHP01250) containing 30 μl of a 64% bovine collagen solution. After a 30 minute incubation at 37° C., which allows the collagen solution time to set, skin samples on transwells were transferred to 6-well plates (1 sample per well) and the lower chamber filled with 1 ml complete media (Cornification Media)+hydrocortisone (final concentration of 0.4 μg/ml) with or without test compounds at 10 μM (day −3) and allowed to rest overnight (16-18 h) at 37° C. Next, media was aspirated from the lower chamber, replaced with 1 ml complete media without hydrocortisone and incubated at 37° C. for 1 h. This constituted a ‘wash’ step. Following the hydrocortisone washout, media was again aspirated from the lower chamber and replaced with 1.0 ml complete media without hydrocortisone with or without GSK compounds at 10 μM (day −2). Cultures were incubated at 37° C. in a humidified chamber and media was refreshed one more day (day-1). The following day (day-0), cultures were stimulated for 24 h with a freshly made Th17 cytokine cocktail (CD3, 1 μg/ml, CD28, 2 μg/ml, IL-1b, 10 ng/ml, IL-6, 5 ng/ml, TGFb, 1 ng/ml, IL-21, 10 ng/ml, anti-IL-4, 1 μg/ml and anti-INFg, 1 μg/ml) with or without test compounds at 10 μM. Upon harvest (day +1), skin samples were minced with a razor blade and transferred to 1.5 ml RNAse-free tubes with 1 ml RNAlater solution until later analysis by RT-PCR (stored at −80 C).
(§2) Total RNA was isolated from about 30-40 mg of tissue using Qiagen's (Cat #74106) Mini RNA Isolation kit. Briefly, tissue was homogenized in the Precellys-24 machine using 300 μL of RLT buffer supplemented with 1% 2-Beta-Mercapto-Ethanol at 6300 rpm for 30 seconds for 6 cycles with a 2-minute ice break. 600 μL of water containing Proteinase K was added to the homogenate and digested at 55 C for 15 minutes. Digested tissue was spun down for 3 minutes at 10,000×g and the supernantant was used for RNA isolation using Qiagen's RNeasy mini columns according to manufacturer's protocol. 100 ng of RNA was used as template in a 20 μL PCR volume using Applied Biosciences RNA-to-CT 1 Step kit (AB Catalog #4392938) as well as the specific TaqMan probe for each gene to be quantified. Life Technologies FAM labeled Probes Catalog Numbers are as follows: ACTb=Hs01060665_g1, IL-17A=Hs00174383_m1, IL-17F=Hs00369400_m1, IL-22=Hs01574154_m1. All probes used (except for ACTb) expand an Exon. Applied Biosciences' Master Mix has a ROX dye internal control. OneStepPlus PCR machine was used for both the RT step and the 40 amplification cycles. RNA levels of gene of interest's relative expression were calculated using the Delta Delta CT formula.
(§3) First delta: Normalized to ACTb gene expression
(§4) Second delta: Normalized to sample 13 (Day 0+DMSO) for the gene of interest.

In the case of `CCc1ccc(N(CC(C)C)S(=O)(=O)c2ccc(OCC3CCOCC3)c(CO)c2)cc1` [Example E124, N-(4-ethylphenyl)-3-(hydroxymethyl)-N-isobutyl-4-((tetrahydro-2H-pyran-4-yl)methoxy)benzenesulfonamide], the “gene transcription of il17f (result in words)” value is reported as “inhibited”.

system: IL-17A mRNA expression; assay: Ex-vivo human skin model, IL-17A mRNA expression; type: cell-based; conditions: four different donors, compound 10 μM
Description: as §1, §2, §3, §4

In the case of `CCc1ccc(N(CC(C)C)S(=O)(=O)c2ccc(OCC3CCOCC3)c(CO)c2)cc1` [Example E124, N-(4-ethylphenyl)-3-(hydroxymethyl)-N-isobutyl-4-((tetrahydro-2H-pyran-4-yl)methoxy)benzenesulfonamide], the “gene transcription of il17a (result in words)” value is reported as “inhibited”.

system: IL-17A secreted from antiCD3/CD28 stimulated Peripheral Blood Mononuclear cells (PBMC); assay: Peripheral Blood Mononucleocyte Cell Assay (PBMC Assay - IL-17); type: cell-based; conditions: Homo sapiens, 48 h, IL-17A release, read-out: mean pIC50 (converted)
Description: Peripheral Blood Mononucleocvte Cell Assay (PBMC Assay—IL-17) […]
This assay is designed to measure levels of IL-17A secreted from antiCD3/CD28 stimulated frozen Peripheral Blood Mononuclear cells (PBMC) isolated from human blood with the aim of identifying inhibitors of IL-17A release.
2. The compounds for screening are dispensed into a master plate at 10 mM top concentration which are serially diluted 1:3 across 11 points in DMSO, then 500 nL is transferred into a 384-well flat-bottomed Greiner plate to which 50 uL of cell suspension is added: for the single shot screening the highest concentration of compound is 10^−5M; for 11 point full curve dose response studies the highest concentration is 10^−4 M.
As a low control, DMSO (as supplied, for example, by VWR) (final concentration 1%) in column 6 (16 points).
As a high control, 5-(4-fluorophenyl)-2-ureidothiophene-3-carboxamide (obtainable from, for example, Sigma) at a final concentration of 10^−4 M in DMSO should be used in column 18 (16 points).
9. Make the cell suspension at the concentration 8×10^5 cells/mL to give a final number of 40,000 cells/well.
1. Add well mixed CD3/CD28 Dynabeads (as supplied, for example, by Dynal) to achieve ratio bead:cell=2:1 (ie. a dilution of 1 in 20). Mix thoroughly.
2. Dispense the suspension into the 384 Assay Plates using Multidrop (50 uL per well). If the volume of cell suspension is large, mix the suspension after dispensing into every other plate.
3. Cover the plates with the lids and place them to the humidified incubator (37° C., 5% CO2) for 48 hours.
1. Transfer 10 uL of supernatants from assay plates to the MSD plates using Cybiwell. Ensure that all wells are covered with the solution. Tap the plate gently, if some of the wells are not covered with the supernatant.
3. Add 10 uL of MSD IL-17 detecting antibody using multidrop (1 ug/mL in D-PBS without Ca^2+ and Mg^2+ (supplied, for example, by Gibco)).
4. Cover the plates with adhesive foil and incubated with shaking for 3 hours at room temperature
7. Add 35 uL of MSD Read Buffer T×2 using multidrop.
8. Read plates on MSD MA6000 reader using the 384 well plate protocol as per manufacturer's instructions.

`Cc1ccc(N(CC(C)C)S(=O)(=O)c2ccc(C(O)CN3CCOCC3)cc2)c(C)c1` (centres unmarked) [Example E120, N-(2,4-dimethylphenyl)-4-(1-hydroxy-2-morpholinoethyl-N-isobutylbenzenesulfonamide hydrochloride] and `Cc1ccc(N(CC(C)C)S(=O)(=O)c2ccc(C(O)CN3CCOCC3)c(F)c2)c(C)c1` (centres unmarked) [Example E87] cannot be ordered by IC50: < 1000 nM for the first, < 1000 nM for the second.

`Cc1ccc(N(CC(C)C)S(=O)(=O)c2ccc(C(O)CN3CCOCC3)cc2C)c(C)c1` (centres unmarked) [Example E88] and `Cc1ccc(N(CC(C)C)S(=O)(=O)c2ccc(C(O)CN3CCOCC3)c(C)c2)c(C)c1` (centres unmarked) [Example E90, N-(2,4-dimethylphenyl)-4-(1-hydroxy-2-morpholinoethyl)-N-isobutyl-3-methylbenzenesulfonamide] cannot be ordered by IC50: < 1000 nM for the first, < 1000 nM for the second.

`Cc1ccc(N(CC(C)C)S(=O)(=O)c2ccc(C(O)CN3CCOCC3)c(Cl)c2)c(C)c1` (centres unmarked) [Example E84] and `Cc1ccc(N(CC(C)C)S(=O)(=O)c2ccc(C(O)CN3CCOCC3)cc2)c(C)c1` (single isomer, unassigned) [Example E122, N-(2,4-dimethylphenyl)-4-(1-hydroxy-2-morpholinoethyl)-N-isobutylbenzenesulfonamide] cannot be ordered by IC50: < 1000 nM for the first, < 1000 nM for the second.

`Cc1ccc(N(CC(C)C)S(=O)(=O)c2ccc(C(CO)N3CCOCC3)c(C)c2)c(C)c1` (centres unmarked) [Example E89, N-(2,4-dimethylphenyl)-4-(2-hydroxy-1-morpholinoethyl)-N-isobutyl-3-methylbenzenesulfonamide] and `Cc1ccc(N(CC(C)C)S(=O)(=O)c2ccc(N3CCOCC3)cc2)c(C)c1` [Example E33] cannot be ordered by IC50: < 1000 nM for the first, < 1000 nM for the second.

First: Cc1ccc(N(CC(C)C)S(=O)(=O)c2ccc(OCC3CCNCC3)cc2)c(C)c1 [Example E8, N-(2,4-dimethylphenyl)-N-isobutyl-4-(piperidin-4-ylmethoxy)benzenesulfonamide, Trifluoroacetic acid salt]
Second: Cc1ccc(N(CC(C)C)S(=O)(=O)c2ccc(OCC3CCC(C)CC3)cc2)c(C)c1 (centres unmarked) [Example E47]
The IC50 of the first is lower: < 1000 nM for the first, > 100000 nM for the second.

`CCc1ccc(N(CC(C)C)S(=O)(=O)c2ccc(C(O)CN3CCOCC3)cc2)cc1` (centres unmarked) [Example E113, N-(4-ethylphenyl)-4-(1-hydroxy-2-morpholinoethyl)-N-isobutylbenzenesulfonamide] and `Cc1ccc(N(CC(C)C)S(=O)(=O)c2ccc(OCC3(C)COCC(=O)N3)cc2)c(C)c1` (centres unmarked) [Example E11] cannot be ordered by IC50: < 1000 nM for the first, < 1000 nM for the second.

`Cc1ccc(N(CC(C)C)S(=O)(=O)c2ccc(OC[C@H]3NCCO[C@@H]3C)cc2)c(C)c1` [Example E36] was tested, and the IC50 was < 1000 nM.

system: IL-22 mRNA expression; assay: Ex-vivo human skin model, IL-22 mRNA expression; type: cell-based; conditions: four different donors, compound 10 μM
Description: as §1, §2, §3, §4

With `CCc1ccc(N(CC(C)C)S(=O)(=O)c2ccc(OCC3CCOCC3)c(CO)c2)cc1` [Example E124, N-(4-ethylphenyl)-3-(hydroxymethyl)-N-isobutyl-4-((tetrahydro-2H-pyran-4-yl)methoxy)benzenesulfonamide] the “gene transcription of il22 (result in words)” value was “inhibited”.
